Measured values reported in patent US8927580B2, “Thiosemicarbazone compounds and use in the treatment of cancer” (Oncochel Therapeutics LLC, priority 2010, dated 2015).

Key:
[1] = system: DMS-53 human lung carcinoma; assay: DMS-53 xenograft in nude mice, i.v. administration: tumour growth; type: in vivo, nude mice (BALBc nu/nu); settings: 0.75 mg/kg
[2] = DMS-53 xenograft i.v. study: body and organ weights, haematology, histology; type: in vivo, nude mice (BALBc nu/nu)
[3] = system: DMS-53 human lung carcinoma; assay: DMS-53 xenograft in nude mice, oral gavage: tumour growth; type: in vivo, nude mice (BALBc nu/nu); settings: 10 mg/kg, 21 days
[4] = DMS-53 xenograft oral study: body and organ weights, haematology, biochemistry, histology; type: in vivo, nude mice (BALBc nu/nu)
[5] = system: PANC 1 human pancreatic carcinoma; assay: PANC 1 xenograft in nude mice: tumour growth; type: in vivo, nude mice (BALBc nu/nu)
Experimental: FIG. 5). […] (5 mg/kg) or vehicle control.

NDRG1 = assay: Western blot analysis, NDRG1 expression; type: cell-based; settings: MIAPaCa-2 cells
Experimental: (§1) Western analysis was performed via established protocols (Gao, J. and D. R. Richardson (2001). Blood 98: 842-50). The primary antibodies used were against NDRG1 (Abcam; UK), p21, cyclin D1, transferrin receptor 1 (TfR1; Santa Cruz, CA, USA) and β-actin (Sigma-Aldrich), with secondary HRP-conjugated goat and mouse antibodies (Sigma-Aldrich).
(§2) Dp4cycH4mT was examined to determine whether it could up-regulate NDRG-1 expression. To further evaluate the effect of the chelator Dp4cycH4mT on other key molecules involved in cell cycle progression, the expression of the cyclin-dependent kinase inhibitor, p21, as well as cyclin D1 in MIAPaCa-2 cells was also examined.

cyclin D1 = assay: Western blot analysis, cyclin D1 levels; type: cell-based; settings: MIAPaCa-2 cells
Experimental: as §1, §2

p21 = assay: Western blot analysis, p21 expression; type: cell-based; settings: MIAPaCa-2 cells
Experimental: as §1, §2

methemoglobin (metHb) = assay: metHb formation in vivo; set-up: species or system C57BL6 mice; settings: 6 mg/kg intravenously, blood taken after 30 min
Experimental: FIG. 13. Effect of thiosemicarbazone chelators on metHb-formation in vivo. MetHb after Dp44mT, Triapine® or Dp4cycH4mT treatment in vivo at a dose of 6 mg/kg administered intravenously via the tail vein. Mice in the control group were treated with vehicle alone. At 30 minutes post-administration, whole blood was collected for determination of metHb levels.
(§3) The levels of metHb and metMb in RBC lysates were determined using a Shimadzu UV-Vis spectrophotometer (UV-1800; Shimadzu Corporation, Kyoto, Japan) at 577 nm and 630 nm for metHb and metMb in accordance with published methods (Winterbourn CC and Carrell R W (1977). Biochem J 165: 141-148).
(§4) C57BL6 mice (7-8 weeks-old) were used under a protocol approved by the university of Sydney Animal Ethics Committee. Dp44mT, Triapine® or Dp4cycH4mT (all at 6 mg/kg) were dissolved in 30% propylene glycol/saline and administered iv via the tail vein. Subsequently, 30 min after administration, mice were anesthetized with isoflurane and blood samples obtained by cardiac puncture. Blood samples were lysed with 2.5 volumes of ultrapure water for metHb estimation. Mice were sacrificed with isoflurane, the heart exhaustively perfused with HBSS and Mb isolated.

metmyoglobin (metMb) = assay: metMb formation in vivo; set-up: species or system C57BL6 mice; settings: 6 mg/kg intravenously, 30 min post-administration, heart
Experimental: FIG. 14. Effect of thiosemicarbazone chelators on metMb-formation in vivo. MetMb levels after Dp44mT Triapine® or Dp4cycH4mT treatment in vivo at a dose of 6 mg/kg administered intravenously via the tail vein. Mice in the control group were treated with vehicle alone. At 30 min post-administration, whole hearts were collected for determination of metMb levels.
Mouse heart tissue was exhaustively perfused with ice-cold HBSS to remove blood and homogenized in ice-cold HBSS containing protease inhibitor cocktail (Roche, Basel, Switzerland). Heart homogenates were centrifuged (16,000×xg/45 min/4° C.) and the supernatant ([oxyMb]=50 μM) used immediately.
as §3, §4

[6] = mouse, in vivo

For `CN(C)C(=S)NN=C(c1ccccn1)c1ccccn1` [Dp44mT, di-2-pyridylketone 4,4-dimethyl-3-thiosemicarbazone, reference compound], the Tumour weight [1] was 0.1 ± 0.02 g, the “net tumour size (% of the initial tumour volume)” value ([1]; after 25 days) was 122% and the “histology of the liver, spleen, kidney, brain or tumour (H & E) vs control” value ([2]; 2 weeks i.v., Dp44mT 0.75 mg/kg, Dp4e4mT.HCl 4 and 6 mg/kg) was “no significant differences”. For the same compound, the “myocardial lesions (Gomori-Trichrome stain)” value ([2]; 2 weeks i.v., Dp44mT 0.75 mg/kg, Dp4e4mT.HCl 4 or 6 mg/kg) was “myocardial lesions were observed”, the “change in red blood cell count, haemoglobin or white blood cell count” value ([2]; after 2 weeks, Dp44mT 0.75 mg/kg, Dp4e4mT.HCl 1.5, 4 or 6 mg/kg i.v.) was “no significant change” and the HCT ([2]; i.v., 0.75 mg, average) was 0.43. The HGB ([2]; i.v., 0.75 mg, average) was 135.50 g/L, the PLT ([2]; i.v., 0.75 mg, average) was 1274.50 10 × 9 cells/L and the RBC ([2]; i.v., 0.75 mg, average) was 9.87 10 × 12 cells/L. For the same compound, the WBC ([2]; i.v., 0.75 mg, average) was 5.38 10 × 9 cells/L, the “Body weight (% of initial weight)” value ([2]; i.v., 0.75 mg/kg) was 91.01 ± 5.3 % initial weight and the Brain weight ([2]; i.v., 0.75 mg/kg) was 0.32 ± 0.01 g. It also gave a Heart weight ([2]; i.v., 0.75 mg/kg) of 0.11 ± 0.01 g, a Kidney weight ([2]; i.v., 0.75 mg/kg) of 0.23 ± 0.01 g and a Liver weight ([2]; i.v., 0.75 mg/kg) of 1.04 ± 0.05 g. The Spleen weight ([2]; i.v., 0.75 mg/kg) was 0.13 ± 0.02 g, the “weight loss (% of initial weight)” value ([2]; i.v., 0.75 mg/kg) was 9% and the Tumour weight [3] was 0.46 ± 0.1 g. The “myocardial lesions (Gomori-Trichrome stain)” value ([4]; Dp44mT 0.75 mg/kg, Dp4e4mT.HCl 3 weeks at 2.5, 5, 7.5 and 10 mg/kg oral) was “myocardial lesions were observed”, the “histology of the liver, spleen, kidney, brain or tumour (H & E) vs control” value ([4]; Dp44mT 2 weeks at 0.75 mg/kg, Dp4e4mT.HCl 3 weeks at 2.5, 5, 7.5 and 10 mg/kg oral) was “no significant differences” and the “Body weight (% initial)” value ([4]; oral, 10 mg/kg) was 93.6 ± 1.8 % initial. For the same compound, the Brain weight ([4]; oral, 10 mg/kg) was 0.363 ± 0.008 g, the Heart weight ([4]; oral, 10 mg/kg) was 0.102 ± 0.005 g and the Kidney weight ([4]; oral, 10 mg/kg) was 0.208 ± 0.004 g. It also gave a Liver weight ([4]; oral, 10 mg/kg) of 0.88 ± 0.02 g, a Lung weight ([4]; oral, 10 mg/kg) of 0.133 ± 0.008 g and a Spleen weight ([4]; oral, 10 mg/kg) of 0.081 ± 0.005 g. For the same compound, the “average tumour size (% of the original tumour size)” value ([5]; after 6 weeks, 0.4 mg/kg i.v. 5 days/week) was 305%, the final tumour weight ([5]; after 43 days, 0.4 mg/kg i.v.) was 122 ± 33 mg and the NDRG1 expression (NDRG1) was “significantly (p<0.01) up-regulated”. The “cyclin D1 levels” value (cyclin D1) was “significantly (p<0.05) reduced”, the p21 expression (p21) was “markedly (p<0.05) increasing” and the “metHb (% of total Hb)” value (methemoglobin (metHb)) was 6.3±0.8 % of total Hb. For the same compound, the “levels of metMb” value (metmyoglobin (metMb)) was 82.3±2.6%, the “KIDNEY Fe (score for presence of iron stained by Perl's stain)” value [6] was “+/−” and the “SPLEEN HPC (score for the presence of haematopoietic cells in the splenic red pulp)” value [6] was “N”. The “iron deposits in the kidney” value [6] was “iron deposits were observed”.
